Results taken from patent US8110675B2, “TP expression-inhibiting compound and siRNA sequence thereof” (Chang Gung University, priority 2009, dated 2012).

Tested on: NPC-TW02 and NPC-TW02/TP cells
Assay: cytotoxicity assay with 5′-DFUR, apoptosis by annexin V flow cytometry
Type: cell-based
Details: TP over-expression, 72 hours
Experimental: Refer to FIG. 1A and FIG. 1B. A cell line of nasopharyngeal cancer NPC-TW02/TP is established to stably express exogenous TP. First, the TP-expression carrier pcDNA3.1-PT is transfected to the cell line. Next, the cell line is screened and then cultivated in a culture solution having 500 μg/ml G418. Next is performed a cytotoxicity assay, wherein NPC-TW02 and NPC-TW02/TP are respectively processed with 5′-DFUR (Sigma-Aldrich, St. Louis, Mo., USA). Next, the cell lines are further cultivated for 72 hours. Next, the cell membranes are everted to expose phosphatidylserine. Then, phosphatidylserine is analyzed with the Vybrant® Apoptosis Assay Kit #2 (a product of Invitrogen).
Firstly, 2×10^5 cells are taken out and washed with PBS. Next, a buffer solution (10 mM HEPES, 140 mM NaCl, 2.5 mM CaCl2, pH 7.4) is used to adjust the solution to have a cell concentration of 2×10^6/mL. Next, 5 μl Alexa Fluor® 488 annexin V is added into 100 μl cell suspension, and then the cell suspension reacts at an ambient temperature for 15 minutes. Next, the cell specimens (10000 events) are analyzed with a flow cytometer (a product of Becton Dickinson), as shown in FIG. 3. […] Then, phosphatidylserine is analyzed with the Vybrant® Apoptosis Assay Kit #2 (a product of Invitrogen).

`C[C@H]1O[C@@H](n2cc(F)c(=O)[nH]c2=O)[C@H](O)[C@@H]1O` [5′-DFUR, 5-fluoro-5′-deoxyuridine] was tested, and the “sensitivity of TP over-expressing nasopharyngeal cancer cells / induction of apoptosis” value was “can induce the apoptosis of cancer cells”.
